Assay results from PMC11923649, “Novel C-2 Aromatic Heterocycle-Substituted Triterpenoids Inhibit Hedgehog Signaling in GLI1 Overexpression Cancer Cells” (ACS Omega, 2025).

How the values were obtained:
HCT116 p53–/– = test: MTS cytotoxicity assay, 72 h, HCT116 p53–/–; type: cell-based; conditions: Homo sapiens, HCT-116, 72 h
How it was run: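 Seed cells; next day add compound (50–0.0975 μmol/L, 2-fold steps); incubate 72 h, 37 °C, 5% CO2; add MTS/PMS, 1–4 h; read A490; fit IC50.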

[1] = tested on: Gli1 protein in A549 cells; test: Western blot of Gli1 in A549 cells, 24 h; type: cell-based, human; conditions: A549, 24 h, immunoblot
Description: In order to verify that compounds 11a and 11b inhibit the proliferation of A549 and DU-145 through Hh inhibition, we monitored the expression of Hh target genes in these cell lines (Figure 2). […] The decreased protein expression of Gli1 targets Cyclin D1, N-Myc, and Bcl-2 strongly indicates inhibition of its transcriptional activity, and their downregulation correlates with the data obtained by the U-87 MG-Gli-FLuc reporter assay. Importantly, these proteins are involved in cell cycle progression, proliferation, and survival. N-Myc amplification or deregulation of transcription, stability, and degradation is associated with many malignancies,[34] and the observed downregulation induced by 11a and 11b may reduce its oncogenic effect.
Figure 2 Effect of compounds 11a and 11b on the protein expression of the Gli1 transcription factor and its transcriptional targets in A549 (A) and DU145 (B) cells following 24 h of incubation. […]
Cells were washed with PBS and lysed on ice in 200 μL of RIPA (Radioimmunoprecipitation Assay) buffer for 30 min. Then, cell lysates were clarified by centrifugation (15000 rpm, 20 min, 4 °C), and the protein concentration in the collected supernatants was determined using a BCA method (Bicinchoninic Acid test). […] Luminescence signal detection was performed by using an Odyssey FC instrument (LI-COR Biosciences).

[2] = Plasma protein binding, Rapid Equilibrium Dialysis; type: in vitro ADME; conditions: read-out: Plasma protein binding % Fraction bound (converted)
Description: (§1) Data from a plasma protein binding study can inform about distribution into tissues of the body and reduction in the amount of drug available to be metabolized or cleared from the body. The measurement of plasma protein binding was performed using a Rapid Equilibrium Dialysis device; 11a and 11b compounds reported a percent of fraction bound around 90%. For the microsomal stability assay, human liver microsomes and NADPH cofactor were used to assess phase I oxidation by cytochrome P450 and flavin monooxygenases. The intrinsic clearance calculated from the microsomal stability assay indicated the medium category for both derivatives (Table 3).

[3] = Microsomal stability, human liver microsomes with NADPH; type: in vitro ADME; conditions: for Category of Intrinsic clearence: calculated from microsomal stability, category per ref 39; for Microsomal stability % Compound remaining 15 min / Microsomal stability % Compound remaining 30 min / Microsomal stability % Compound remaining 60 min: human liver microsomes, NADPH
Description: as §1

## C=C(C)[C@@H]1CC[C@]2(C(=O)O)CC[C@]3(C)C(CCC4[C@@]5(C)C=C(c6ccco6)C(=O)C(C)(C)C5CC[C@]43C)C12 (stereo partly shown) [Compound 11a, 2-(Furan-2-yl)-3-oxolupa-1,20(29)-dien-28-oic acid]
HCT116 p53–/–; Table 1
  IC50: 12 µM
HCT116 p53–/–; full Table S1
  IC50: 12.4 µM
[1]
  Endogenous Gli1 protein level: inhibit the endogenous Gli1 protein level in a dose-dependent manner
[2]
  fraction unbound: ~0.1
[3]
  Category of Intrinsic clearence: Medium
  Microsomal stability % Compound remaining 15 min: 88%
  Microsomal stability % Compound remaining 30 min: 72%
  Microsomal stability % Compound remaining 60 min: 52%

## C=C(C)[C@@H]1CC[C@]2(C(=O)O)CC[C@]3(C)C(CCC4[C@@]5(C)C=C(c6ccoc6)C(=O)C(C)(C)C5CC[C@]43C)C12 (stereo partly shown) [Compound 11b, 2-(Furan-3-yl)-3-oxolupa-1,20(29)-dien-28-oic acid]
HCT116 p53–/–; Table 1
  IC50: 14 µM
HCT116 p53–/–; full Table S1
  IC50: 13.5 µM
[1]
  Endogenous Gli1 protein level: inhibit the endogenous Gli1 protein level in a dose-dependent manner
[2]
  fraction unbound: ~0.1
[3]
  Category of Intrinsic clearence: Medium
  Microsomal stability % Compound remaining 15 min: 84%
  Microsomal stability % Compound remaining 30 min: 69%
  Microsomal stability % Compound remaining 60 min: 51%
